In series [1] the test system is Septoria tritici. Nature of the series: Example IX-B: in vivo preventive test on Septoria tritici (leaf spot on wheat). Conditions: Zymoseptoria tritici, 576 h; compounds of formula IX; 500 ppm of active ingredient; wheat plants, preventive spray; evaluated 24 days after inoculation; read-out: efficacy. On the procedure:
Example IX-B: In Vivo Preventive Test on Septoria Tritici (Leaf Spot on Wheat)
(§1) The active ingredients are made soluble and homogenized in a mixture of Dimethyl sulfoxide/Acetone/Tween® 80 and then diluted in water to the desired concentration.
(§2) The young plants of wheat are treated by spraying the active ingredient prepared as described above. Control plants are treated only with an aqueous solution of Acetone/Dimethyl sulfoxide/Tween® 80.
After 24 hours, the plants are contaminated by spraying the leaves with an aqueous suspension of Septoria tritici spores. The contaminated wheat plants are incubated for 72 hours at 18° C. and at 100% relative humidity and then for 21 days at 20° C. and at 90% relative humidity.
The test is evaluated 24 days after the inoculation. 0% means an efficacy which corresponds to that of the control plants while an efficacy of 100% means that no disease is observed.

A short description of series [2]: Log P by HPLC on reversed phase columns (EEC directive 79/831 Annex V.A8; methods [a], [b], [c]). It counts as physicochemical. The following applies: reversed phase HPLC column; method [a]: LC-UV, acidic range, 0.1% formic acid in water and acetonitrile as eluent (linear gradient from 10% to 95% acetonitrile). In outline: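 Reversed-phase HPLC with LC-UV detection, 10→95% acetonitrile linear gradient; aqueous eluent 0.1% formic acid [a], 0.001 M ammonium acetate, neutral [b], or 0.1% phosphoric acid [c]. Calibrated against C3–C16 alkan-2-ones of known Log P by retention-time linear interpolation; multiple values within a method separated by "+".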

The subject of series [3] is Puccinia recondita. Put plainly: Example IX-A: in vivo preventive test on Puccinia recondita (brown rust on wheat). The following applies: 264 h, compounds of formula IX, 500 ppm of active ingredient, wheat plants, preventive spray, evaluated 11 days after inoculation, read-out: efficacy. On the procedure:
Example IX-A: In Vivo Preventive Test on Puccinia Recondita (Brown Rust on Wheat)
as §1, §2
After 24 hours, the plants are contaminated by spraying the leaves with an aqueous suspension of Puccinia recondita spores. The contaminated wheat plants are incubated for 24 hours at 20° C. and at 100% relative humidity and then for 10 days at 20° C. and at 70-80% relative humidity.
(§3) The test is evaluated 11 days after the inoculation. 0% means an efficacy which corresponds to that of the control plants while an efficacy of 100% means that no disease is observed.

Series [4] has as its system Sphaerotheca fuliginea. Put plainly: Example IX-C: in vivo preventive test on Sphaerotheca fuliginea (powdery mildew on cucurbits). Conditions: Podosphaera fuliginea, 360 h; compounds of formula IX; 500 ppm of active ingredient; gherkin plants, preventive spray; evaluated 15 days after inoculation; read-out: efficacy. On the procedure:
Example IX-C: In Vivo Preventive Test on Sphaerotheca Fuliginea (Powdery Mildew on Cucurbits)
as §1
The young plants of gherkin are treated by spraying the active ingredient prepared as described above. Control plants are treated only with an aqueous solution of Acetone/Dimethyl sulfoxide/Tween® 80.
After 24 hours, the plants are contaminated by spraying the leaves with an aqueous suspension of Sphaerotheca fuliginea spores. The contaminated gherkin plants are incubated for 72 hours at 18° C. and at 100% relative humidity and then for 12 days at 20° C. and at 70-80% relative humidity.
The test is evaluated 15 days after the inoculation. 0% means an efficacy which corresponds to that of the control plants while an efficacy of 100% means that no disease is observed.

Series [5] relates to Uromyces appendiculatus. Put plainly: Example IX-D: in vivo preventive test on Uromyces appendiculatus (bean rust). The following applies: 264 h, compounds of formula IX, 500 ppm of active ingredient, bean plants, preventive spray, evaluated 11 days after inoculation, read-out: efficacy. On the procedure: Example IX-D: In Vivo Preventive Test on Uromyces Appendiculatus (Bean Rust)
as §1
The young plants of bean are treated by spraying the active ingredient prepared as described above. Control plants are treated only with an aqueous solution of Acetone/Dimethyl sulfoxide/Tween® 80.
After 24 hours, the plants are contaminated by spraying the leaves with an aqueous suspension of Uromyces appendiculatus spores. The contaminated bean plants are incubated for 24 hours at 20° C. and at 100% relative humidity and then for 10 days at 20° C. and at 70-80% relative humidity.
as §3
control plants while an efficacy of 100% means that no disease was observed.

`O=C(Cn1cncc1Br)c1ccc(Oc2ccc(Cl)nc2)cc1Cl` [IX-56]: the pest or weed control at 500 ppm in series [1] lay in the range of 90 to 100%; in series [3], 80 to 89%. In series [2], this compound came in with a chromatographic logP of 2.25.

With `N#Cc1cncn1CC(=O)c1ccc(Oc2ccc(C(F)F)cc2)nc1C(F)(F)F` [IX-132], the pest or weed control at 500 ppm in series [1], in series [4] and in series [3] was 90 to 100% throughout. Further, the chromatographic logP in series [2] turned out to be 2.8.

Turning to `N#Cc1cncn1CC(=O)c1cnc(Oc2ccc(Br)nc2)cc1C(F)(F)F` [IX-143], the pest or weed control at 500 ppm in series [1] lay within 90 to 100%; in series [4], 90 to 100%; in series [3] it was 80 to 89%. Further, the chromatographic logP in series [2] was determined as 2.71.

Turning to `O=C(Cn1cncc1C(F)(F)F)c1ccc(Oc2ccc(I)cc2)cc1F` [IX-49], the pest or weed control at 500 ppm in series [1] is 90 to 100%; in series [3], 80 to 89%. For the same compound, the chromatographic logP in series [2] was determined as 4.16.

For the compound `O=C(Cn1cncc1Cl)c1ccc(Oc2ccc(Cl)nc2)cc1C(F)(F)F` [IX-28], the pest or weed control at 500 ppm in series [1] was in the range of 90 to 100%; in series [4], 90 to 100%; in series [3], 80 to 89%. In series [2], the chromatographic logP was 2.45.

Turning to `N#Cc1cncn1CC(=O)c1ccc(Oc2ccc(Cl)cn2)cc1C(F)(F)F` [IX-71], the pest or weed control at 500 ppm in series [1], in series [4] and in series [3] was 90 to 100% in each case. The compound further showed a chromatographic logP in series [2] of 3.01.

As for `O=C(Cn1cncc1Br)c1ccc(Oc2ccc(Cl)cn2)cc1Cl` [IX-55], the values for the pest or weed control at 500 ppm in series [1], in series [4] and in series [3] were 90 to 100%, 90 to 100% and 80 to 89%, respectively. Besides, in series [2], the chromatographic logP was found to be 2.52.

As for `O=C(Cn1cncc1Cl)c1ccc(Oc2ccc(Cl)cc2)cc1C(F)F` [IX-73], the pest or weed control at 500 ppm in series [1], in series [5] and in series [3] was 90 to 100% each time. Further, the chromatographic logP in series [2] came to 3.02.

Take `N#Cc1cncn1CC(=O)c1ccc(Oc2ccc(OC(F)(F)F)cc2)nc1C(F)(F)F` [IX-129]: the pest or weed control at 500 ppm in series [1], in series [4] and in series [3] was 90 to 100% throughout. The chromatographic logP in series [2] worked out at 3.32.

With `O=C(Cn1cncc1Cl)c1ccc(Oc2ccc(C(F)(F)F)cc2)cc1` [IX-17], the pest or weed control at 500 ppm lay within 90 to 100% in series [1], 90 to 100% in series [4] and 80 to 89% in series [3]. The same compound registered a chromatographic logP in series [2] of 2.84.

Turning to `CC(=O)c1cncn1CC(=O)c1cnc(Oc2ccc(Cl)cc2)cc1C(F)(F)F` [IX-120], the pest or weed control at 500 ppm in series [1] fell in the range of 90 to 100%; in series [5], 80 to 89%; in series [3], 90 to 100%. In series [2], the chromatographic logP came to 3.55.

As for `N#Cc1cncn1CC(=O)c1ccc(Oc2ccc(Cl)cc2F)nc1C(F)(F)F` [IX-128], the pest or weed control at 500 ppm in series [1] lay in the range of 90 to 100%; in series [4], 90 to 100%; in series [3], 70 to 79%. In series [2], the chromatographic logP is 3.14.

Regarding `O=C(Cn1cncc1Cl)c1ccc(Oc2ccc(Cl)cc2)cc1` [IX-21], the pest or weed control at 500 ppm in series [1] is 90 to 100%; in series [4] it was 90 to 100%; in series [3], 80 to 89%. Moreover, the chromatographic logP in series [2] came out at 2.63.

For the compound `N#Cc1cncn1CC(=O)c1ccc(Cl)cc1Cl` [IX-99], the pest or weed control at 500 ppm in series [1] is 90 to 100%; in series [4] it was 90 to 100%; in series [3] it was 70 to 79%. The chromatographic logP in series [2] is 2.34.

In the case of `N#Cc1cncn1CC(=O)c1ccc(Cl)cc1` [IX-90], the pest or weed control at 500 ppm in series [1] fell in the range of 90 to 100%; in series [4] it was 80 to 89%; in series [3] it was 80 to 89%. Further, in series [2], the chromatographic logP worked out at 2.04.

As to `N#Cc1cncn1CC(=O)c1ccc(Oc2ccc(Br)nc2)nc1C(F)(F)F` [IX-144], the results for the pest or weed control at 500 ppm in series [1], in series [4] and in series [3] were 90 to 100%, 90 to 100% and 70 to 79%, respectively. For the same compound, in series [2], the chromatographic logP turned out to be 2.68.

As for `N#Cc1cncn1CC(=O)c1ccc(Oc2ccc(C(F)(F)F)nc2)nc1C(F)(F)F` [IX-131], the results for the pest or weed control at 500 ppm in series [1], in series [4] and in series [3] were 90 to 100%, 90 to 100% and 80 to 89%, respectively. The chromatographic logP in series [2] worked out at 2.92.

Turning to `N#Cc1cncn1CC(=O)c1ccc(Oc2ccc(Br)cc2)nc1C(F)(F)F` [IX-118], the values for the pest or weed control at 500 ppm in series [1], in series [4] and in series [5] were 90 to 100%, 90 to 100% and 80 to 89%, respectively. The compound also came in with a chromatographic logP in series [2] of 3.39.

As for `O=C(Cn1cncc1Cl)c1ccc(Oc2ccc(Cl)cc2)nc1C(F)(F)F` [IX-52], the figures for the pest or weed control at 500 ppm in series [1], in series [4] and in series [3] were 90 to 100%, 70 to 79% and 90 to 100%, respectively. Besides, the chromatographic logP in series [2] turned out to be 3.

For `O=C(Cn1cncc1Br)c1ccc(Oc2ccc(Cl)cc2)cc1C(F)(F)F` [IX-41], the pest or weed control at 500 ppm in series [1] was 90 to 100%; in series [3] it was 80 to 89%. This compound also came in with a chromatographic logP in series [2] of 3.35.

As for `O=C(Cn1cncc1Cl)c1ccc(Oc2ccc(Cl)nc2)cc1Cl` [IX-44], the pest or weed control at 500 ppm lay in the range of 90 to 100% in series [1], 90 to 100% in series [4] and 80 to 89% in series [3]. This compound came in with a chromatographic logP in series [2] of 2.2.

Consider `N#Cc1cncn1CC(=O)c1cnc(Oc2ccc(Cl)cc2F)cc1C(F)(F)F` [IX-96], for which the pest or weed control at 500 ppm fell in the range of 90 to 100% in series [1], 90 to 100% in series [4] and 80 to 89% in series [3]. The same compound came in with a chromatographic logP in series [2] of 3.46.

As for `O=C(Cn1cncc1Cl)c1ccc(Oc2ccc(Cl)cn2)cc1C(F)(F)F` [IX-72], the pest or weed control at 500 ppm in series [1] was 90 to 100%; in series [4], 70 to 79%; in series [3] it was 80 to 89%. The same compound yielded a chromatographic logP in series [2] of 2.75.

As for `N#Cc1cncn1CC(=O)c1ccc(Oc2ccc(Cl)cn2)cc1Cl` [IX-70], the values for the pest or weed control at 500 ppm in series [1], in series [4] and in series [3] were 70 to 79%, 90 to 100% and 80 to 89%, respectively. For the same compound, the chromatographic logP in series [2] turned out to be 2.8.

As for `N#Cc1cncn1CC(=O)c1ccc(Oc2ccc(C(F)(F)F)cc2)nc1C(F)(F)F` [IX-137], the pest or weed control at 500 ppm in series [1], in series [4] and in series [3] was 90 to 100% each time. In series [2], this compound yielded a chromatographic logP of 3.35.

On to `O=C(Cn1cncc1Br)c1ccc(Oc2ccc(C(F)(F)F)cc2)cc1C(F)(F)F` [IX-51], for which the values for the pest or weed control at 500 ppm in series [1], in series [4] and in series [3] were 90 to 100%, 90 to 100% and 80 to 89%, respectively. For the same compound, in series [2], the chromatographic logP was found to be 3.51.

In the case of `O=C(Cn1cncc1Br)c1ccc(Oc2ccc(S(F)(F)(F)(F)F)cc2)nc1Cl` [IX-26], the values for the pest or weed control at 500 ppm in series [1], in series [4] and in series [3] were 80 to 89%, 90 to 100% and 80 to 89%, respectively. This compound yielded a chromatographic logP in series [2] of 3.23.

`O=C(Cn1cncc1Br)c1ccc(Oc2ccc(Cl)cc2)cc1` [IX-22]: the results for the pest or weed control at 500 ppm in series [1], in series [4] and in series [3] were 90 to 100%, 90 to 100% and 80 to 89%, respectively. In series [2], this compound yielded a chromatographic logP of 2.63.

As a reminder, the chromatographic logP is lipophilicity estimated from chromatographic retention. Higher therefore signals a more lipophilic compound.

The record behind these values is patent publication US20200031778A1, “NOVEL 5-SUBSTITUTED IMIDAZOLYLMETHYL DERIVATIVES” (Bayer CropScience Aktiengesellschaft, priority 2016, published 2020).
